Data taken from patent US11766425B2, “Antibiotic combination therapies” (BIOVERSYS AG, priority 2019, dated 2023).
Where two headings read alike, the source gives them in different places.

How the values were obtained:
Format in all cases: cell-based, Acinetobacter baumannii
[1] = test system: A. baumannii 401046-18; assay: broth microdilution checkerboard MIC/synergy; conditions: for MIC: Acinetobacter baumannii, 40104618, strain 401046-18, antibiotic alone, read-out: MICs alone; for MICs combi: strain 401046-18
Method: (§1) Checkerboards were performed according to the CLSI parameters used for microbroth dilution MIC5. CA-MHB, iron-depleted CA-MHB (ID-CA-MHB) or RPMI supplemented with 10% FCS medium were used as specified and ID-CA-MHB was prepared according to CLSI guidelines. […] FICI is calculated as follows: […]

[2] = test system: A. baumannii UNT239-1; assay: broth microdilution checkerboard MIC/synergy; conditions: for MICs combi: strain UNT239-1
Method: as §1

[3] = test system: A. baumannii IHMA919656; assay: broth microdilution checkerboard MIC/synergy; conditions: for MICs combi: strain IHMA919656
Method: as §1

[4] = test system: A. baumannii IHMA867231; assay: broth microdilution checkerboard MIC/synergy; conditions: for MIC: Acinetobacter baumannii, IHMA867231, strain IHMA867231, antibiotic alone, read-out: MICs alone; for MICs combi: strain IHMA867231
Method: as §1

[5] = test system: A. baumannii 402608-17; assay: broth microdilution checkerboard MIC/synergy; conditions: for MIC: Acinetobacter baumannii, 40260817, strain 402608-17, antibiotic alone, read-out: MICs alone; for MICs combi: strain 402608-17
Method: as §1

[6] = test system: A. baumannii 401255-18; assay: broth microdilution checkerboard MIC/synergy; conditions: for MIC: Acinetobacter baumannii, 40125518, strain 401255-18, antibiotic alone, read-out: MICs alone; for MICs combi: strain 401255-18
Method: as §1

[7] = test system: A. baumannii IHMA1013816; assay: broth microdilution checkerboard MIC/synergy; conditions: for MICs combi: strain IHMA1013816
Method: as §1

[8] = test system: A. baumannii UNT191-1; assay: broth microdilution checkerboard MIC/synergy; conditions: for MIC: Acinetobacter baumannii, UNT1911, strain UNT191-1, antibiotic alone, read-out: MICs alone; for MICs combi: strain UNT191-1
Method: as §1

[9] = test system: A. baumannii IHMA690517; assay: broth microdilution checkerboard MIC/synergy; conditions: for MIC: Acinetobacter baumannii, IHMA690517, strain IHMA690517, antibiotic alone, read-out: MICs alone; for MICs combi: strain IHMA690517
Method: as §1

[10] = test system: A. baumannii UNT087-1; assay: broth microdilution checkerboard MIC/synergy; conditions: for MIC: Acinetobacter baumannii, UNT0871, strain UNT087-1, antibiotic alone, read-out: MICs alone; for MICs combi: strain UNT087-1
Method: as §1

[11] = test system: A. baumannii UNT091-1; assay: broth microdilution checkerboard MIC/synergy; conditions: for MIC: Acinetobacter baumannii, UNT0911, strain UNT091-1, antibiotic alone, read-out: MICs alone
Method: as §1

[12] = test system: A. baumannii UNT238-1; assay: broth microdilution checkerboard MIC/synergy; conditions: ID-CA-MHB
Method: as §1

[13] = test system: A. baumannii HUMC1; assay: broth microdilution checkerboard MIC/synergy; conditions: for MIC: Acinetobacter baumannii, HUMC1, read-out: MICs alone; for MICs combi: strain HUMC1
Method: as §1

[14] = test system: A. baumannii 402292-17; assay: broth microdilution checkerboard MIC/synergy; conditions: for MIC: Acinetobacter baumannii, 40229217, strain 402292-17, antibiotic alone, read-out: MICs alone; for MICs combi: strain 402292-17
Method: as §1

[15] = test system: A. baumannii IHMA863866; assay: broth microdilution checkerboard MIC/synergy
Method: as §1

[16] = test system: panel of MDR clinical isolates of A. baumannii
Method: as §1

[17] = test system: A. baumannii LAC-4 strain; assay: broth microdilution checkerboard MIC/synergy; conditions: for FICI / Interpretation: second antibiotic in combination with rifabutin, LAC-4; for MICs combi: strain LAC-4
Method: as §1
The checkerboards were performed in CA-MHB or ID-CA-MHB for cefiderocol.

[18] = rifabutin/cefiderocol checkerboard, ID-CA-MHB
[19] = rifabutin/cefiderocol in combination, ID-CA-MHB
[20] = rifabutin/cefiderocol in combination
[21] = rifabutin/cefiderocol checkerboard
[22] = rifampicin/colistin checkerboard
[23] = rifampicin/colistin in combination

## CC(C)(O/N=C(\C(=O)N[C@@H]1C(=O)N2C(C(=O)[O-])=C(C[N+]3(CCNC(=O)c4ccc(O)c(O)c4Cl)CCCC3)CS[C@H]12)c1csc(N)n1)C(=O)O [Cefiderocol, cefiderocol]
[1]; [18]
  MIC: 128 µg/mL
[1]; [19]
  MICs combi: 32 mg/L
[2]; Acinetobacter baumannii, UNT2391, read-out: MICs alone
  MIC: 4 µg/mL
[2]; [19]
  MICs combi: 1 mg/L
[3]; Acinetobacter baumannii, IHMA919656, strain IHMA919656, antibiotic alone, rifabutin/cefiderocol checkerboard, read-out: MICs alone
  MIC: 0.125 µg/mL
[3]; [20]
  MICs combi: 0.03 mg/L
[4]; [21]
  MIC: 1 µg/mL
[4]; [20]
  MICs combi: 0.25 mg/L
[5]; [21]
  MIC: 8 µg/mL
[5]; [20]
  MICs combi: 2 mg/L
[6]; [21]
  MIC: 16 µg/mL
[6]; [20]
  MICs combi: 4 mg/L
[7]; Acinetobacter baumannii, IHMA1013816, strain IHMA1013816, antibiotic alone, rifabutin/cefiderocol checkerboard, read-out: MICs alone
  MIC: 0.06 µg/mL
[7]; [20]
  MICs combi: 0.016 mg/L
[8]; [18]
  MIC: 16 µg/mL
[8]; [19]
  MICs combi: 4 mg/L
[9]; [21]
  MIC: 0.25 µg/mL
[9]; [20]
  MICs combi: 0.06 mg/L
[10]; [21]
  MIC: 0.5 µg/mL
[10]; [20]
  MICs combi: 0.125 mg/L
[11]; [21]
  MIC: 4 µg/mL
[11]; strain UNT091-1, rifabutin/cefiderocol in combination
  MICs combi: 1 mg/L
[12]; Acinetobacter baumannii, UNT2381, strain UNT238-1, antibiotic alone, rifabutin/cefiderocol checkerboard, read-out: MICs alone
  MIC: 4 µg/mL
[12]; strain UNT238-1, rifabutin/cefiderocol in combination
  MICs combi: 1 mg/L
[13]
  MIC: 2 µg/mL
[13]; [20]
  MICs combi: 0.5 mg/L
[14]; [21]
  MIC: > 32 µg/mL
[14]; [20]
  MICs combi: 8 mg/L
[15]; Acinetobacter baumannii, IHMA863866, read-out: MICs alone
  MIC: 4 µg/mL
[15]; strain IHMA863866, rifabutin/cefiderocol in combination
  MICs combi: 1 mg/L
[16]; in combination with rifabutin, all A. baumannii strains tested (16 MDR isolates)
  decrease in the MIC of cefiderocol: ≥ 4 fold
[16]; rifabutin/cefiderocol, panel of strains
  strains on which synergy was observed: 100%
[17]; Acinetobacter baumannii, LAC4STRAIN, read-out: MICs alone
  MIC: 1 µg/mL
[17]; ID-CA-MHB
  FICI: 0.5
  Interpretation: synergy (synergy (FICI≤0.5))
[17]; [19]
  MICs combi: 0.25 mg/L

## CO/N=C(\C(=O)N[C@@H]1C(=O)N2C(C(=O)O)=C(COC(C)=O)CS[C@H]12)c1csc(N)n1 [Cefotaxime, cefotaxime]
[17]; CA-MHB
  FICI: 1.5
  Interpretation: indifferent (indifferent (FICI>0.50 and ≤4))

## CN(C)[C@@H]1C(O)=C(C(N)=O)C(=O)[C@@]2(O)C(O)=C3C(=O)c4c(O)c(NC(=O)CN5CCCC5)cc(F)c4C[C@H]3C[C@@H]12 [Eravacycline, eravacycline]
[17]; CA-MHB
  FICI: 1
  Interpretation: indifferent (indifferent (FICI>0.50 and ≤4))

## C[C@@H](O)[C@H]1C(=O)N2C(C(=O)O)=C(S[C@@H]3CN[C@H](C(=O)N(C)C)C3)[C@H](C)[C@H]12 [Meropenem, meropenem]
[17]; CA-MHB
  FICI: 1
  Interpretation: indifferent (indifferent (FICI>0.50 and ≤4))

## CN(C)c1ccc(O)c2c1C[C@H]1C[C@H]3[C@H](N(C)C)C(O)=C(C(N)=O)C(=O)[C@@]3(O)C(O)=C1C2=O [Minocycline, minocycline]
[17]; CA-MHB
  FICI: 1
  Interpretation: indifferent (indifferent (FICI>0.50 and ≤4))

## CO[C@H]1/C=C/O[C@@]2(C)Oc3c(C)c(O)c4c(O)c(c(/C=N/N5CCN(C)CC5)c(O)c4c3C2=O)NC(=O)/C(C)=C\C=C\[C@H](C)[C@H](O)[C@@H](C)[C@@H](O)[C@@H](C)[C@H](OC(C)=O)[C@@H]1C [Rifampicin, rifampicin]
[1]; [22]
  MIC: 512 µg/mL
[1]; [23]
  MICs combi: 64 mg/L
[2]; [23]
  MICs combi: 0.25 mg/L
[3]; [23]
  MICs combi: 0.03 mg/L
[4]; [22]
  MIC: 512 µg/mL
[4]; [23]
  MICs combi: 32 mg/L
[5]; [22]
  MIC: 512 µg/mL
[5]; [23]
  MICs combi: 64 mg/L
[6]; [22]
  MIC: 512 µg/mL
[6]; [23]
  MICs combi: 128 mg/L
[7]; [23]
  MICs combi: 0.06 mg/L
[8]; [22]
  MIC: 4 µg/mL
[8]; [23]
  MICs combi: 0.25 mg/L
[9]; [22]
  MIC: 4 µg/mL
[9]; [23]
  MICs combi: 0.06 mg/L
[10]; [22]
  MIC: 4 µg/mL
[10]; [23]
  MICs combi: 4 mg/L
[11]; [22]
  MIC: 4 µg/mL
[13]
  MIC: 4 µg/mL
[13]; [23]
  MICs combi: 1 mg/L
[14]; [22]
  MIC: 512 µg/mL
[14]; [23]
  MICs combi: 256 mg/L
[16]; in combination with colistin, isolates with mutations in the rpoB gene
  rifampicin combination MICs: ≥ 32 mg/L
[16]; rifampicin with colistin
  strains on which synergy was observed: 88%
[17]; [23]
  MICs combi: 0.06 mg/L

## NC[C@H]1O[C@H](O[C@H]2[C@H](O)[C@@H](O[C@H]3O[C@H](CO)[C@@H](O)[C@H](N)[C@H]3O)[C@H](N)C[C@@H]2N)[C@H](N)C[C@@H]1O [Tobramycin, tobramycin]
[17]; CA-MHB
  FICI: 1.5
  Interpretation: indifferent (indifferent (FICI>0.50 and ≤4))
